According to patent US7803769B2 (priority 2006, dated 2010):
Bridge positions count the residues as written; N and C are the ends. Square brackets hold non-standard residues; d marks the D form. Peptide text beside a SMILES is read from it. 1Nal = N[C@@H](Cc1cccc2ccccc12)C(=O)O

Experiments:
human Kv1.1 (HEK293) = target: T1, human Kv1.1 (HEK293) (Homo sapiens, UniProt Q09470); test: cell-based
T1 construct: expressed in transfected cells; host or cells: HEK293

human Kv1.3 (CHO) = target: T2, human Kv1.3 (CHO) (Homo sapiens, UniProt P22001); test: cell-based
T2 construct: expressed in transfected cells
T2 sequence (P22001 whole entry): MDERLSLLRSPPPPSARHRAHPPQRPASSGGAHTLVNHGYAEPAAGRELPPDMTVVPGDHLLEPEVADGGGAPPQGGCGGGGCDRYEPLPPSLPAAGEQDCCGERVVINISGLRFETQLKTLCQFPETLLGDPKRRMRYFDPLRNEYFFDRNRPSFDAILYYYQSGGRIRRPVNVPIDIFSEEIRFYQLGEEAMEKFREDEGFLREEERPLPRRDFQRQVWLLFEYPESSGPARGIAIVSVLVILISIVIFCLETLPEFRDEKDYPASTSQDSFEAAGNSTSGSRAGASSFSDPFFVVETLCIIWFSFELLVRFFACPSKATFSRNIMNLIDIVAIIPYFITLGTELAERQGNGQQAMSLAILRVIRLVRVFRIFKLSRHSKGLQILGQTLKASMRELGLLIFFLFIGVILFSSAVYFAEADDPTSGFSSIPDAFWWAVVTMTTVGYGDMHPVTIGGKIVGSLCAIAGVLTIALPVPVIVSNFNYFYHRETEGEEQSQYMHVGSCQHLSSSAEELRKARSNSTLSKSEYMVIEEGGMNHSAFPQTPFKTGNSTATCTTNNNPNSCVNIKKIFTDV

T1 sequence (Q09470 whole entry): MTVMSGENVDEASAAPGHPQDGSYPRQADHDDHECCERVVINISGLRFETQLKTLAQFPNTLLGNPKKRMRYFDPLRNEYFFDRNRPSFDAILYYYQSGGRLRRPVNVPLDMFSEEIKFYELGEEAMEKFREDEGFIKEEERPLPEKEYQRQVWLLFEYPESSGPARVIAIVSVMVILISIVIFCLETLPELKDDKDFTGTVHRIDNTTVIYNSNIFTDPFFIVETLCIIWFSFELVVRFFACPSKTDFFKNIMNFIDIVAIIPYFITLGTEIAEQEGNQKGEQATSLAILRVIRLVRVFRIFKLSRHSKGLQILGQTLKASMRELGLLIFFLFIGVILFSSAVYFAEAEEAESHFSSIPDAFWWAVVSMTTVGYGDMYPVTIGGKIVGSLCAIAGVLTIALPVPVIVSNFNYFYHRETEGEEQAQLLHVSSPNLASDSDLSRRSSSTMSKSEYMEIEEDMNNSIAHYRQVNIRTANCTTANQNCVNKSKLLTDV

CC[C@H](C)[C@@H]1NC(=O)[C@H](CCCCN)NC(=O)[C@@H](NC(=O)[C@H](CCCCN)NC(=O)[C@@H](NC(=O)[C@H](CC(N)=O)NC(=O)[C@@H](NC(=O)[C@H](Cc2cccc3ccccc23)NC(=O)[C@@H](NC(=O)CN)C(C)C)[C@@H](C)CC)C(C)C)CSSC[C@@H]2NC(=O)[C@H](CCCCN)NC(=O)CNC(=O)[C@H](Cc3ccccc3)NC(=O)[C@H](CCCNC(=N)N)NC(=O)[C@H](CCSC)NC(=O)CNC(=O)[C@H](C)NC(=O)[C@H](CCCCN)NC(=O)[C@H](CCCCN)NC(=O)[C@@H]3CSSC[C@@H](C(=O)N[C@H](C(=O)N4CCC[C@H]4C(=O)N[C@@H](CCCCN)C(=O)O)[C@@H](C)O)NC(=O)[C@H](Cc4c[nH]cn4)NC(=O)[C@H](CSSC[C@H](NC(=O)[C@H](CCC(N)=O)NC(=O)[C@H](CCCNC(=N)N)NC(=O)[C@H](CO)NC1=O)C(=O)N[C@@H](CC(C)C)C(=O)N[C@@H](CCC(=O)O)C(=O)N1CCC[C@H]1C(=O)N3)NC(=O)[C@H](CCCCN)NC(=O)CNC(=O)[C@H](CC(N)=O)NC(=O)[C@H](CCSC)NC2=O [I3Nal] (H-GV[1Nal]INVKCKISRQCLEPCKKAGMRFGKCMNGKCHCTPK-OH; disulfide 8-28, 14-33, 18-35)
IC50 (human Kv1.1 (HEK293)): 0.00234 nM
IC50 (human Kv1.3 (CHO)): 0.0103 nM

CC[C@H](C)[C@@H]1NC(=O)[C@H](CCCCN)NC(=O)[C@@H](NC(=O)[C@H](CCCCN)NC(=O)[C@@H](NC(=O)[C@H](CC(N)=O)NC(=O)[C@@H](NC(=O)[C@@H](NC(=O)[C@@H](NC(=O)CN)C(C)C)[C@@H](C)CC)[C@@H](C)CC)C(C)C)CSSC[C@@H]2NC(=O)[C@H](CCCCN)NC(=O)CNC(=O)[C@H](Cc3ccccc3)NC(=O)[C@H](CCCNC(=N)N)NC(=O)[C@H](CCSC)NC(=O)CNC(=O)[C@H](C)NC(=O)[C@H](CCCCN)NC(=O)[C@H](Cc3cccc4ccccc34)NC(=O)[C@@H]3CSSC[C@@H](C(=O)N[C@H](C(=O)N4CCC[C@H]4C(=O)N[C@@H](CCCCN)C(=O)O)[C@@H](C)O)NC(=O)[C@H](Cc4c[nH]cn4)NC(=O)[C@H](CSSC[C@H](NC(=O)[C@H](CCC(N)=O)NC(=O)[C@H](CCCNC(=N)N)NC(=O)[C@H](CO)NC1=O)C(=O)N[C@@H](CC(C)C)C(=O)N[C@@H](CCC(=O)O)C(=O)N1CCC[C@H]1C(=O)N3)NC(=O)[C@H](CCCCN)NC(=O)CNC(=O)[C@H](CC(N)=O)NC(=O)[C@H](CCSC)NC2=O [K19Nal] (H-GVIINVKCKISRQCLEPC[1Nal]KAGMRFGKCMNGKCHCTPK-OH; disulfide 8-28, 14-33, 18-35)
IC50 (human Kv1.1 (HEK293)): < 0.00152 nM
IC50 (human Kv1.3 (CHO)): 0.0172 nM

CC[C@H](C)[C@@H]1NC(=O)[C@H](CCCCN)NC(=O)[C@@H](NC(=O)[C@H](CCCCN)NC(=O)[C@@H](NC(=O)[C@H](CC(N)=O)NC(=O)[C@@H](NC(=O)[C@@H](NC(=O)[C@@H](NC(=O)CN)C(C)C)[C@@H](C)CC)[C@@H](C)CC)C(C)C)CSSC[C@@H]2NC(=O)[C@H](CCCCN)NC(=O)CNC(=O)[C@H](Cc3ccccc3)NC(=O)[C@H](CCCNC(=N)N)NC(=O)[C@H](CCSC)NC(=O)CNC(=O)[C@H](C)NC(=O)[C@H](CCCCN)NC(=O)[C@H](CCCCN)NC(=O)[C@@H]3CSSC[C@@H](C(=O)N[C@H](C(=O)N4CCC[C@H]4C(=O)N[C@@H](CCCCN)C(=O)O)[C@@H](C)O)NC(=O)[C@H](Cc4c[nH]cn4)NC(=O)[C@H](CSSC[C@H](NC(=O)[C@H](CCC(N)=O)NC(=O)[C@H](CCCNC(=N)N)NC(=O)[C@H](CO)NC1=O)C(=O)N[C@@H](CC(C)C)C(=O)N[C@@H](CCC(=O)O)C(=O)N1CCC[C@H]1C(=O)N3)NC(=O)[C@H](CCCCN)NC(=O)[C@H](Cc1cccc3ccccc13)NC(=O)[C@H](CC(N)=O)NC(=O)[C@H](CCSC)NC2=O [G31Nal] (H-GVIINVKCKISRQCLEPCKKAGMRFGKCMN[1Nal]KCHCTPK-OH; disulfide 8-28, 14-33, 18-35)
IC50 (human Kv1.1 (HEK293)): < 0.00152 nM
IC50 (human Kv1.3 (CHO)): 0.0338 nM

CC[C@H](C)[C@@H]1NC(=O)[C@H](CCCCN)NC(=O)[C@@H](NC(=O)[C@H](CCCCN)NC(=O)[C@H](Cc2cccc3ccccc23)NC(=O)[C@H](CC(N)=O)NC(=O)[C@@H](NC(=O)[C@@H](NC(=O)[C@@H](NC(=O)CN)C(C)C)[C@@H](C)CC)[C@@H](C)CC)CSSC[C@@H]2NC(=O)[C@H](CCCCN)NC(=O)CNC(=O)[C@H](Cc3ccccc3)NC(=O)[C@H](CCCNC(=N)N)NC(=O)[C@H](CCSC)NC(=O)CNC(=O)[C@H](C)NC(=O)[C@H](CCCCN)NC(=O)[C@H](CCCCN)NC(=O)[C@@H]3CSSC[C@@H](C(=O)N[C@H](C(=O)N4CCC[C@H]4C(=O)N[C@@H](CCCCN)C(=O)O)[C@@H](C)O)NC(=O)[C@H](Cc4c[nH]cn4)NC(=O)[C@H](CSSC[C@H](NC(=O)[C@H](CCC(N)=O)NC(=O)[C@H](CCCNC(=N)N)NC(=O)[C@H](CO)NC1=O)C(=O)N[C@@H](CC(C)C)C(=O)N[C@@H](CCC(=O)O)C(=O)N1CCC[C@H]1C(=O)N3)NC(=O)[C@H](CCCCN)NC(=O)CNC(=O)[C@H](CC(N)=O)NC(=O)[C@H](CCSC)NC2=O [V6Nal] (H-GVIIN[1Nal]KCKISRQCLEPCKKAGMRFGKCMNGKCHCTPK-OH; disulfide 8-28, 14-33, 18-35)
IC50 (human Kv1.1 (HEK293)): < 0.00152 nM
IC50 (human Kv1.3 (CHO)): 0.021 nM

CC[C@H](C)[C@@H]1NC(=O)[C@H](CCCCN)NC(=O)[C@@H](NC(=O)[C@H](CCCCN)NC(=O)[C@@H](NC(=O)[C@H](CC(N)=O)NC(=O)[C@@H](NC(=O)[C@@H](NC(=O)[C@H](Cc2cccc3ccccc23)NC(=O)CN)[C@@H](C)CC)[C@@H](C)CC)C(C)C)CSSC[C@@H]2NC(=O)[C@H](CCCCN)NC(=O)CNC(=O)[C@H](Cc3ccccc3)NC(=O)[C@H](CCCNC(=N)N)NC(=O)[C@H](CCSC)NC(=O)CNC(=O)[C@H](C)NC(=O)[C@H](CCCCN)NC(=O)[C@H](CCCCN)NC(=O)[C@@H]3CSSC[C@@H](C(=O)N[C@H](C(=O)N4CCC[C@H]4C(=O)N[C@@H](CCCCN)C(=O)O)[C@@H](C)O)NC(=O)[C@H](Cc4c[nH]cn4)NC(=O)[C@H](CSSC[C@H](NC(=O)[C@H](CCC(N)=O)NC(=O)[C@H](CCCNC(=N)N)NC(=O)[C@H](CO)NC1=O)C(=O)N[C@@H](CC(C)C)C(=O)N[C@@H](CCC(=O)O)C(=O)N1CCC[C@H]1C(=O)N3)NC(=O)[C@H](CCCCN)NC(=O)CNC(=O)[C@H](CC(N)=O)NC(=O)[C@H](CCSC)NC2=O [V2Nal] (H-G[1Nal]IINVKCKISRQCLEPCKKAGMRFGKCMNGKCHCTPK-OH; disulfide 8-28, 14-33, 18-35)
IC50 (human Kv1.1 (HEK293)): 0.00246 nM
IC50 (human Kv1.3 (CHO)): 0.0116 nM

CC[C@H](C)[C@@H]1NC(=O)[C@H](CCCCN)NC(=O)[C@@H](NC(=O)[C@H](CCCCN)NC(=O)[C@@H](NC(=O)[C@H](CC(N)=O)NC(=O)[C@@H](NC(=O)[C@@H](NC(=O)[C@@H](NC(=O)CN)C(C)C)[C@@H](C)CC)[C@@H](C)CC)C(C)C)CSSC[C@@H]2NC(=O)[C@H](CCCCN)NC(=O)CNC(=O)[C@H](Cc3ccccc3)NC(=O)[C@H](CCCNC(=N)N)NC(=O)[C@H](CCSC)NC(=O)CNC(=O)[C@H](C)NC(=O)[C@H](CCCCN)NC(=O)[C@H](CCCCN)NC(=O)[C@@H]3CSSC[C@@H](C(=O)N[C@H](C(=O)N4CCC[C@H]4C(=O)N[C@@H](CCCCN)C(=O)O)[C@@H](C)O)NC(=O)[C@H](Cc4c[nH]cn4)NC(=O)[C@H](CSSC[C@H](NC(=O)[C@H](Cc4cccc5ccccc45)NC(=O)[C@H](CCCNC(=N)N)NC(=O)[C@H](CO)NC1=O)C(=O)N[C@@H](CC(C)C)C(=O)N[C@@H](CCC(=O)O)C(=O)N1CCC[C@H]1C(=O)N3)NC(=O)[C@H](CCCCN)NC(=O)CNC(=O)[C@H](CC(N)=O)NC(=O)[C@H](CCSC)NC2=O [Q13Nal] (H-GVIINVKCKISR[1Nal]CLEPCKKAGMRFGKCMNGKCHCTPK-OH; disulfide 8-28, 14-33, 18-35)
IC50 (human Kv1.1 (HEK293)): < 0.00152 nM
IC50 (human Kv1.3 (CHO)): 0.0134 nM
